“And” between values parts separate entries of the source, which are not always exact repeats. Equal values may be shown once.

For series [1], the system named is antibody (competition with benzodiazepine-BSA conjugate 7). Nature of the series: Immunochromatographic assay of benzodiazepines (nitrocellulose test strip, competitive). It counts as binding. The protocol:
In the absence of lipophilic drug in a sample being analyzed, the drug conjugate can bind to the antibody, and this binding can be measured. When a the lipophilic drug is present in the sample, the drug competes with the drug conjugate for binding to the antibody. Antibody that is bound to the liphophilic drug no longer contributes to the binding measurement. Lipophilic drug content is determined relative to the values obtained for known concentrations of the standard compound (Adler, F. L. J. Immunol. 1971, 106(6):1684–1685. See also Bates, M. Amer. Acad. Forensic Sci. 1991, 37(6):1000).
The benzodiazepine-BSA conjugate was prepared in a similar manner as described in Example 6, but treating with BSA rather than BTG. The product was prepared and stored in 100 mM potassium phosphate as 10 mg/mL solution with 0.05% sodium azide as preservative Example 9-Immunochromatographic assay of benzodiazepines using water-soluble derivative 2 as calibrator The immunochromatographic assay was conducted using a nitrocellulose-based test strip as described in detail in U.S. Pat. No. 5,770,458. Mylar backed large pore size nitrocellulose (8–12 micron) was cut into pieces of 15 cm in length and 5 cm in width. A solution of the benzodiazepine-BSA conjugate 7 (about 5 mg/mL) and anti-BSA monoclonal antibody (about 2 mg/mL), both in 50 mM potassium phosphate buffer pH 7.5, were loaded onto IVEK CORP. (North Springfield, Vt.) […] 2000™ system. The solutions were dispensed at the rate 1 μl/cm onto nitrocellulose at a distance of 2 cm and 1 cm, respectively, from the 15 cm side. The nitrocellulose segments were allowed to dry for about 30 min. at 37° C., and then were blocked with polyvinyl alcohol (PVA, m.w. 13,000–23,000) solution in 20 mM TRIS, pH 8, for 30 min. at room temperature. The segments were then rinsed in water and dried.
The same nitrocellulose as described above in this example was used as a separate membrane for microparticles (top membrane). The construction of the two-membrane strip configuration was carried out as described in detail in U.S. Pat. No. 5,770,458. In brief, the top membrane was blocked and washed using the same protocol as the main membrane. The top membrane containing the appropriate amount of microparticles was laminated to the main membrane with ADHESIVE […] INC. (Glen Rock, Pa.) adhesive mylar and the segment was then cut into 5 mm wide strips. The sample pad and sink pad were placed respectively at the beginning and terminal ends of the strips. Cellulose from BIORAD LABORATORIES (Hercules, Calif.) (gel blotter) was used for both the sample receiving pads and the sink pads. The calibration curve was obtained by adding solutions containing predetermined amounts of drug in urine to the sample receiving pad or by dipping the sample receiving pad of the membrane strip in the solutions. Various predetermined concentrations of water-soluble derivative 2 were used to prepare the standards in urine. The signal strength is determined as follows: 2.5 to 3.0=dark blue, 1.5 to 2.0-medium blue, 1.0=light blue, 0.5=barely perceivable color and 0=colorless. When the strip read colorless, a complete inhibition is achieved and the sample is indicated to contain 200 ng/mL of the drug used to prepare the “standards”.

The procedure of series [2]:
Water-soluble derivative 2 was spiked in certified drug-free human urine 100 ng/mL) and the resulting solution was divided into two portions: one was stored at 4° C. and the other stressed at 45° C. After three months, both solutions were analyzed for the concentration of water-soluble derivative 2 by the following procedure. A volume (between 2.5 to 10 mL) of the urine solutions was passed through an affinity column packed with anti-benzodiazepines antiserum-coated latex beads (0.8 μm). After it was washed with a 50 mM, pH 6.1 MES (4-morpholineethane […]) buffer, the column was eluted with methanol. The methanol eluant was then evaporated and the residue reconstituted in 404 μL of MES buffer. […] The column was eluted with a gradient generated between a 50 mM, pH 6.8 ammonium acetate buffer and acetonitrile (Table C).

The conditions of series [3]: in water; 'it is believed'.
The nature of series [4]: Heat stress stability of urine standard solutions, ABUSCREEN ONLINE Benzodiazepines assay. The conditions noted are these: for stability in urine by ONLINE assay: up to 4 weeks, 4° C. or 45° C., pH 6.4 or 7.4, 100 to 200 ng/mL. The protocol:
(§1) Urine standard solutions were prepared using pooled, filtered, normal human urine containing 0.09 percent sodium azide. […] Each of the drug stock solutions was added analytically to the assigned aliquot of urine pool. Final drug concentrations in the solutions were determined by GC-MS analyses performed at ELSOHLY LABORATORIES (Oxford, MS).
(§2) The stability of the above standard solutions were evaluated using three different analytical technologies: (1) GCIMS (Gas Chromatography/Mass Spectrometry) analysis, (2) ABUSCREEN ONLINE Benzodiazepines Immunoassay, and (3) HPLC (High Pressure Liquid Chromatography) analysis.
The heat stress stability study of the water-soluble derivative 2 was evaluated using ABUSCREEN ONLINE Benzodiazepines assay. […] (in neutral and acidic negative urine pools, 2 concentrations for each urinary pH).

Series [5] concerns antibody of ABUSCREEN ONLINE Benzodiazepines assay. The conditions noted are these: ONLINE immunoassay.
Description: ABUSCREEN ONLINE reagents and Calibration Pack were obtained from ROCHE DIAGNOSTICS CORPORATION, INC. […] ABUSCREEN ONLINE Benzodiazepines assay was run either on a ROCHE MIRA analyzer in a semi-quantitative mode, or using a ROCHE COBAS INTEGRA 700 analyzer in a semi-quantitative mode, according to the I manufacturer's instructions.
Series [6] in a line: Heat stress stability of urine standard solutions, GC/MS quantification. It counts as physicochemical. The following applies: for change of concentration in urine: 45° C. and 55° C. The method, then:
as §1, §2
The standard solutions were stored at various temperatures, including 4° C., 45° C. and 55° C., and tested at different time intervals.

The conditions of series [7]: cited from earlier work.
Setting [8] is: urine, scale 2.5 to 3.0 dark blue, 1.5 to 2.0 medium blue, 1.0 light blue, 0.5 barely perceivable, 0 colorless.
The mark [9] stands for this setting: urine pH 6.4, higher-concentration standard.
The mark [10] stands for this setting: urine pH 6.4, lower-concentration standard.
Where [11] appears, read: urine pH 7.4, higher-concentration standard.
Where [12] appears, read: urine pH 7.4, lower-concentration standard.

Regarding `O=C1CN=C(c2ccccc2F)c2cc(Cl)ccc2N1CCNS(=O)(=O)O` [Water-soluble derivative 2, 1-(2-Sulfamidoethyl)-2′-fluoro-7-chloro-1,4-benzodiazepine], in series [1] (immunochromatographic assay), the “cross-reactivity to both Oxazepam and Nordiazepam” value is given as “approximately 70%”. Also, in series [1] (setting [8]), the “signal strength at 50 ng/mL standard” value was 2.50 and 2.75; the “signal strength at 100 ng/mL standard” value is 2.00; the “signal strength at 200 ng/mL standard” value came to 0; the “signal strength at 400 ng/mL standard” value was determined as 0. Besides, the “relative stability of the stressed sample (single extraction and HPLC runs)” value in series [2] (human urine, three months, 45° C. vs 4° C., duplicate runs) is 96% and 106%. The “relative stability of the stressed sample (average)” value in series [2] (human urine, three months, area count at 45° C. divided by that at 4° C., average of duplicates) is 101%. Also, in series [2] (urine, storage as long as 3 months), the “stability at 45° C. relative to 4° C.” value is “no decrease in stability”. In addition, in series [3], the aqueous solubility entry is on record as “more than 2 mg/mL”. In addition, the “stability in urine by ONLINE assay” value in series [4] was “stable for the evaluated time and temperatures”. Also, in series [4] (listed as water-soluble benzodiazepine reference standard 2), the “stability in urine by ONLINE assay” value was “does not change significantly”. In series [4] (setting [9]), the “ONLINE assay concentration, 4° C., Day 0” value was 191 ng/mL; the “ONLINE assay concentration, 4° C., Week 2” value worked out at 191 ng/mL; the “ONLINE assay concentration, 4° C., Week 4” value is given as 193 ng/mL; the “ONLINE assay concentration, 45° C., Day 0” value came to 191 ng/mL. In series [4] (setting [9]), the “ONLINE assay concentration, 45° C., Week 2” value is 200 ng/mL and the “ONLINE assay concentration, 45° C., Week 4” value is reported as 209 ng/mL. For the same molecule, in series [4] (setting [10]), the “ONLINE assay concentration, 4° C., Day 0” value turned out to be 99 ng/mL; the “ONLINE assay concentration, 4° C., Week 2” value came to 97 ng/mL; the “ONLINE assay concentration, 4° C., Week 4” value amounted to 106 ng/mL; the “ONLINE assay concentration, 45° C., Day 0” value was determined as 99 ng/mL. Further, in series [4] (setting [10]), the “ONLINE assay concentration, 45° C., Week 2” value is on record as 101 ng/mL and the “ONLINE assay concentration, 45° C., Week 4” value amounted to 109 ng/mL. Further, in series [4] (setting [11]), the “ONLINE assay concentration, 4° C., Day 0” value amounted to 188 ng/mL; the “ONLINE assay concentration, 4° C., Week 2” value came to 183 ng/mL; the “ONLINE assay concentration, 4° C., Week 4” value is listed as 189 ng/mL; the “ONLINE assay concentration, 45° C., Day 0” value is listed as 188 ng/mL. Further, in series [4] (setting [11]), the “ONLINE assay concentration, 45° C., Week 2” value is 179 ng/mL and the “ONLINE assay concentration, 45° C., Week 4” value worked out at 192 ng/mL. For the same molecule, in series [4] (setting [12]), the “ONLINE assay concentration, 4° C., Day 0” value is on record as 102 ng/mL; the “ONLINE assay concentration, 4° C., Week 2” value stood at 92 ng/mL; the “ONLINE assay concentration, 4° C., Week 4” value is 99 ng/mL; the “ONLINE assay concentration, 45° C., Day 0” value was determined as 102 ng/mL. In series [4] (setting [12]), the “ONLINE assay concentration, 45° C., Week 2” value is given as 95 ng/mL and the “ONLINE assay concentration, 45° C., Week 4” value was 98 ng/mL. Further, in series [5], the “cross-reactivity to both Oxazepam and Nordiazepam” value is reported as “approximately 70%”. For the same molecule, the “GC/MS concentration, Day 0” value in series [6] (human urine standard solution, starting concentration) is “Day 0 = 171 ng/mL”. In addition, the “GC/MS value at 5 months, 4° C.” value in series [6] (human urine, 5 months, 4° C., Day 0 = 171 ng/mL) came out at 147 ng/mL. Moreover, in series [6] (human urine, 5 months, 45° C., Day 0 = 171 ng/mL), the “GC/MS value at 5 months, 45° C.” value was determined as 150 ng/mL. For the same molecule, in series [6] (human urine, 5 months, 55° C., Day 0 = 171 ng/mL), the “GC/MS value at 5 months, 55° C.” value is listed as 145 ng/mL. Further, the “GC/MS concentration after storage at 4° C.” value in series [6] (human urine, two weeks, 4° C.) came to 191 ng/mL. Further, the “GC/MS concentration after storage at 45° C.” value in series [6] (human urine, two weeks, 45° C.) came out at 178 ng/mL. In addition, the “GC/MS concentration after storage at 55° C.” value in series [6] (human urine, two weeks, 55° C.) is 185 ng/mL. In addition, the “change of concentration in urine” value in series [6] (two weeks, 4° C.) is reported as “stable at all temperatures”. The “change of concentration in urine” value in series [6] (two weeks, 4° C., listed as water-soluble benzodiazepine reference standard 2) is “does not change significantly”.

Regarding `CCN(CC)CCN1C(=O)CN=C(c2ccccc2F)c2cc(Cl)ccc21` [Fluazepam], in series [7], the “solubility in water” value was “only slight solubility in water”.

On to `O=C1CN=C(c2ccccc2)c2cc(Cl)ccc2N1` [Nordiazepam, reference compound], for which, in series [4] (setting [11]), the “ONLINE assay concentration, 4° C., Day 0” value turned out to be 271 ng/mL; the “ONLINE assay concentration, 4° C., Week 2” value is on record as 272 ng/mL; the “ONLINE assay concentration, 4° C., Week 4” value worked out at 252 ng/mL; the “ONLINE assay concentration, 45° C., Day 0” value was 271 ng/mL. In series [4] (setting [12]), the “ONLINE assay concentration, 4° C., Day 0” value came out at 139 ng/mL; the “ONLINE assay concentration, 4° C., Week 2” value came out at 140 ng/mL; the “ONLINE assay concentration, 4° C., Week 4” value came out at 134 ng/mL; the “ONLINE assay concentration, 45° C., Day 0” value stood at 139 ng/mL.

These data come from patent US7029918B2, “Water-soluble derivatives of lipophilic drugs” (Roche Diagnostics Operations, Inc., priority 2002, dated 2006).
